Data: patent US20170247326A1, “Substituted Pyrrolidine Carboxamide Compounds” (EPIZYME, INC., priority 2014, published 2017)
pIC50: −log10 of the molar value.

Target: T1, SMYD2 (Homo sapiens, UniProt Q9NRG4)
T1 construct: Full length SMYD2 (NP_064582.2) was cloned; His6 (N, cleaved yes); FLAG (N); made in house; host or cells: Sf9 insect cells
Test: SMYD2 biochemical assay (3H-SAM, biotinylated peptide substrate, Flashplate)
Settings: Table 1; average of n = 1 to n = 50; read-out: SMYD2 Biochem IC50
Method in brief: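 Full-length His/FLAG-tagged SMYD2 (tag removed, Sf9-expressed) at 1.5 nM was preincubated with compound for 30 min at room temperature in Bicine pH 7.6 buffer with 2% DMSO. Reaction used 10 nM 3H-SAM and 60 nM biotinylated peptide, stopped with 600 uM cold SAM. Streptavidin-captured 3H-peptide counted; IC50 from 3- or 4-parameter fit.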

T1 sequence (Q9NRG4 whole entry): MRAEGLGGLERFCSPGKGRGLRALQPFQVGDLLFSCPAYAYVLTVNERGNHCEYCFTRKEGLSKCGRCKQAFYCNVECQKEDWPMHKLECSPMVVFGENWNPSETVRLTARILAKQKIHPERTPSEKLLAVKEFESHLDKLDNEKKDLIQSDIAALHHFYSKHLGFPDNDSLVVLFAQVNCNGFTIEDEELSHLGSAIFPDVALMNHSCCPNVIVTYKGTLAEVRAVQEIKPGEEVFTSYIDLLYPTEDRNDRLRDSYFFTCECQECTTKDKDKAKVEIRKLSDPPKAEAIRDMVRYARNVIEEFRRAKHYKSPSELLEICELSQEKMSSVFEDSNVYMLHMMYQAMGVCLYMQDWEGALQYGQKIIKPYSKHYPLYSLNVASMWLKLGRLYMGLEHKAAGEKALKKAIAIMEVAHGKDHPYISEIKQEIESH

| pIC50 | SMILES |
| --- | --- |
| < 4.30 | Cc1cc(C(=O)N[C@@H]2CN(C3CC3)C[C@@H]2C)n(Cc2ccccc2)n1 (racemic) [compound 10, (±)-cis-1-benzyl-N-(1-cyclopropyl-4-methylpyrrolidin-3-yl)-3-methyl-1H-pyrazole-5-carboxamide] |
| < 4.30 | C[C@H]1CN(C2CC2)C[C@@H]1NC(=O)c1ccc2c(c1)CC(=O)N2 (racemic) [Cpd. No. 5, (±)-trans-N-(1-cyclopropyl-4-methylpyrrolidin-3-yl)-2-oxoindoline-5-carboxamide] |
| < 4.30 | C[C@@H]1CN(C2CC2)C[C@@H]1NC(=O)c1ccc2c(c1)OC(F)(F)O2 (racemic) [compound 2, (±)-cis-N-(1-cyclopropyl-4-methylpyrrolidin-3-yl)-2,2-difluorobenzo[d][1,3]dioxole-5-carboxamide] |
| < 4.30 | C[C@H]1CN(C2CC2)C[C@H]1NC(=O)c1cc(O)nn1C (racemic) [compound 16, (±)-cis-N-(1-cyclopropyl-4-methylpyrrolidin-3-yl)-3-hydroxy-1-methyl-1H-pyrazole-5-carboxamide] |

Same assay, conditions: Table 3; average of n = 1 to n = 50; read-out: SMYD2 Biochem IC50

| SMILES | pIC50 |
| --- | --- |
| CC(C)N1C[C@@H](C)[C@H](NC(=O)c2ncc(C3CC3)s2)C1 (racemic) [compound 72, (±)-trans-5-cyclopropyl-N-[4-methyl-1-(propan-2-yl)pyrrolidin-3-yl]-1,3-thiazole-2-carboxamide] | < 4.30 |
| C[C@H]1CN(C2CC2)C[C@H]1NC(=O)c1cccc(N2CCCC2)c1 (racemic) [compound 31, (±)-cis-N-[1-cyclopropyl-4-methylpyrrolidin-3-yl]-3-(pyrrolidin-1-yl)benzamide] | < 4.30 |
| CC(C)N1C[C@H](C)[C@H](NC(=O)c2nccc(C3CC3)n2)C1 (racemic) [compound 60, (±)-cis-4-cyclopropyl-N-[4-methyl-1-(propan-2-yl)pyrrolidin-3-yl]pyrimidine-2-carboxamide] | < 4.30 |
| CC(C)N1C[C@@H](C)[C@H](NC(=O)c2cnnc(C3CC3)c2)C1 (racemic) [compound 65, (±)-trans-6-cyclopropyl-N-[4-methyl-1-(propan-2-yl)pyrrolidin-3-yl]pyridazine-4-carboxamide] | < 4.30 |
| CC(C)N1C[C@@H](C)[C@H](NC(=O)c2nnc(C3CC3)s2)C1 (racemic) [compound 48, (±)-trans-5-cyclopropyl-N-[4-methyl-1-(propan-2-yl)pyrrolidin-3-yl]-1,3,4-thiadiazole-2-carboxamide] | 4.40 |
| CC(C)N1C[C@@H](C)[C@H](NC(=O)c2noc(C3CC3)n2)C1 (racemic) [compound 39, (±)-trans-5-cyclopropyl-N-[4-methyl-1-(propan-2-yl)pyrrolidin-3-yl]-1,2,4-oxadiazole-3-carboxamide] | < 4.30 |
| CC(C)N1C[C@H](C)[C@H](NC(=O)c2ccc3c(c2)NC(=O)CO3)C1 (single isomer, unassigned) [compound 32, (+)-cis-N-[4-methyl-1-(propan-2-yl)pyrrolidin-3-yl]-3-oxo-3,4-dihydro-2H-1,4-benzoxazine-6-carboxamide] | < 4.30 |
| CC(=O)N[C@@H]1CN(C(C)C)C[C@H]1C (racemic) [compound 58, (±)-trans-N-[4-methyl-1-(propan-2-yl)pyrrolidin-3-yl]acetamide] | < 4.30 |

The next lines start with the values.

| pIC50 | SMILES |
| --- | --- |
| 4.94 | CC(C)N1CC(NC(=O)c2cc(C3CC3)cnn2)CC1C (stereo not drawn) [compound 120, 5-cyclopropyl-N-(1-isopropyl-5-methylpyrrolidin-3-yl)pyridazine-3-carboxamide] |
| 5.66 | CC(C)N1C[C@@H](C)[C@@H](NC(=O)c2cn(C3CC3)cn2)C1 (stereo in doubt) [compound 121, (±)-cis-1-cyclopropyl-N-(1-isopropyl-4-methylpyrrolidin-3-yl)-1H-imidazole-4-carboxamide] |
| 6.24 | C[C@H]1CN(Cc2ccccc2)C[C@H]1NC(=O)c1cc(C2CC2)cnn1 (racemic) [compound 99, (±)-cis-N-(1-benzyl-4-methylpyrrolidin-3-yl)-5-cyclopropylpyridazine-3-carboxamide] |
| < 4.30 | CN(C)C1CCC(NC(=O)c2cn(C3CC3)nn2)C1 (stereo not drawn) [compound 122, 1-cyclopropyl-N-[3-(dimethylamino)cyclopentyl]-1H-1,2,3-triazole-4-carboxamide] |
| 6.21 | CCN1C[C@H](C)[C@H](NC(=O)c2cc(C3CC3)cnn2)C1 (racemic) [compound 100, (±)-cis-5-cyclopropyl-N-(1-ethyl-4-methylpyrrolidin-3-yl)pyridazine-3-carboxamide] |
| 5.29 | CCc1cnnc(C(=O)N[C@@H]2CN(C(C)C)C[C@@H]2C)c1 (racemic) [compound 96, (±)-cis-5-ethyl-N-[4-methyl-1-(propan-2-yl)pyrrolidin-3-yl]pyridazine-3-carboxamide] |
| 4.92 | CC(C)N1C[C@@H](C)[C@H](NC(=O)c2cc(C3CC3)cnn2)C1 (racemic) [compound 111, (±)-trans-5-cyclopropyl-N-[4-methyl-1-(propan-2-yl)pyrrolidin-3-yl]pyridazine-3-carboxamide] |
| < 4.30 | CC(C)N1C[C@@H](C)[C@H](NC(=O)c2ccc(C3CC3)nn2)C1 (racemic) [compound 108, (±)-trans-6-cyclopropyl-N-[4-methyl-1-(propan-2-yl)pyrrolidin-3-yl]pyridazine-3-carboxamide] |
| 4.71 | CC(C)N1C[C@H](C)[C@H](NC(=O)c2csnc2C2CC2)C1 (racemic) [compound 92, (±)-cis-3-cyclopropyl-N-[4-methyl-1-(propan-2-yl)pyrrolidin-3-yl]-1,2-thiazole-4-carboxamide] |
| < 4.30 | CC(C)N1C[C@H](C)[C@H](NC(=O)c2c[nH]c(C3CC3)n2)C1 (racemic) [compound 77, (±)-cis-2-cyclopropyl-N-[4-methyl-1-(propan-2-yl)pyrrolidin-3-yl]-1H-imidazole-4-carboxamide] |
| 6.34 | C[C@H]1CN(Cc2ccc(OCc3ccccc3)cc2)C[C@H]1NC(=O)c1cn(C2CC2)nn1 (stereo in doubt) [compound 106, (±)-cis-N-(1-{[4-(benzyloxy)phenyl]methyl}-4-methylpyrrolidin-3-yl)-1-cyclopropyl-1H-1,2,3-triazole-4-carboxamide] |

Same assay, conditions: Table 4; average of n = 1 to n = 50; read-out: SMYD2 Biochem IC50

| pIC50 | SMILES |
| --- | --- |
| < 4.30 | CNCCS(=O)(=O)N1C[C@H](C)[C@H](NC(=O)c2cc(C3CC3)cnn2)C1 (racemic) [compound 128, rac-5-cyclopropyl-N-((3R,4R)-4-methyl-1-((2-(methylamino)ethyl)sulfonyl)pyrrolidin-3-yl)pyridazine-3-carboxamide] |
| 5.19 | CC(C)N1C[C@@H](N(C)C(=O)c2cc(C3CC3)cnn2)[C@@H](C)C1 (racemic) [compound 130, rac-5-cyclopropyl-N-((3R,4R)-1-isopropyl-4-methylpyrrolidin-3-yl)-N-methylpyridazine-3-carboxamide] |
| 6.34 | C[C@@H]1CN(Cc2ccc(OCc3ccccc3)cc2)C[C@@H]1NC(=O)c1cn(C2CC2)nn1 (stereo in doubt) [compound 131, rac-N-((3R,4R)-1-(4-(benzyloxy)benzyl)-4-methylpyrrolidin-3-yl)-1-cyclopropyl-1H-1,2,3-triazole-4-carboxamide] |
| 4.94 | CC(C)N1CC(NC(=O)c2cc(C3CC3)cnn2)CC1C (stereo not drawn) [compound 125, 5-cyclopropyl-N-(1-isopropyl-5-methylpyrrolidin-3-yl)pyridazine-3-carboxamide] |
